Legend:
[1] = target: GDP-bound KRAS wild-type protein (Homo sapiens, UniProt P01116); test: Binding to KRAS by surface plasmon resonance (SPR), Single Cycle Kinetics; conditions: SPR, Single Cycle Kinetics, GDP-bound KRAS wild-type protein; read-out: KRAS KD
[2] = target: GDP-bound NRAS wild-type protein (Homo sapiens, UniProt P01111); test: Binding to NRAS by surface plasmon resonance (SPR), Single Cycle Kinetics; conditions: ratio of KD for GDP-bound NRAS wild-type protein to KD for KRAS, SPR
GDP-bound NRAS wild-type protein, sequence (P01111 whole entry): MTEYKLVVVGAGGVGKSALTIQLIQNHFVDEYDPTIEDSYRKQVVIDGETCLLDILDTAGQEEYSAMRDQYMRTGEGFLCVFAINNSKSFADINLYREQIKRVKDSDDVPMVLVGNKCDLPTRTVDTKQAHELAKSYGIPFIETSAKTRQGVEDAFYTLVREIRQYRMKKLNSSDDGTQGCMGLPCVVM

[3] = target: GDP-bound HRAS wild-type protein (Homo sapiens, UniProt P01112); test: Binding to HRAS by surface plasmon resonance (SPR), Single Cycle Kinetics; conditions: ratio of KD for GDP-bound HRAS wild-type protein to KD for KRAS, SPR
GDP-bound HRAS wild-type protein, sequence (P01112 whole entry): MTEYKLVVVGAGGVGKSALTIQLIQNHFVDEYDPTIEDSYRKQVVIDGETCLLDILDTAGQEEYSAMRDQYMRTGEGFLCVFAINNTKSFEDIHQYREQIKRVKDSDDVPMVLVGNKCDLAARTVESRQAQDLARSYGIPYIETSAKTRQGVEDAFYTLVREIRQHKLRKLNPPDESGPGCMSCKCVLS

[4] = tested on: human lung cancer strain NCI-H441; test: cells; conditions: NCI-H441, 96 h, read-out: NCI-H441 IC50 (nM), NCI-H441 cell proliferation, 4 days, CellTiter-Glo;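 also: cell proliferation inhibition after four days measured by CellTiter-Glo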

GDP-bound KRAS wild-type protein, sequence (P01116 whole entry): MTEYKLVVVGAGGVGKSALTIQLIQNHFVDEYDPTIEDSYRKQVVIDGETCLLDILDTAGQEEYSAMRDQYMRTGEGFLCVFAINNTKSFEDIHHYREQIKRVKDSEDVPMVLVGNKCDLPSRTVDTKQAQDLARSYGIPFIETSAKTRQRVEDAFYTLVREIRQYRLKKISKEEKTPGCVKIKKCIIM

Row | Kd [1] [nM] | IC50 [4] [nM] | SMILES | NRAS/KRAS (KD ratio) [2] | HRAS/KRAS (KD ratio) [3]
1 | 0.11 | 3.6 | CCCN(C)C(=O)[C@@H]1CC(=O)N(C)[C@@H](CC(F)F)C(=O)N[C@@H]([C@@H](C)CC)C(=O)N(C)CC(=O)N(C)[C@H]2C/C=C\CCN(C2=O)[C@@H](Cc2ccc(C(F)(F)F)cc2)C(=O)N(C)CC(=O)N[C@@H](CCc2cc(F)c(C(F)(F)F)c(F)c2)C(=O)N2C[C@H](OCC)C[C@H]2C(=O)NC2(CCC2)C(=O)N(C)[C@@H](C2CCCC2)C(=O)N1C [PP1700] | A (a compound having 10 or more and less than 20 is denoted as A) | A (a compound having 10 or more and less than 20 is denoted as A)
2 | 0.13 | 4 | CC[C@H](C)[C@@H]1NC(=O)[C@H](CC(C)C)N(C)C(=O)C[C@@H](C(=O)N(C)C)N(C)C(=O)[C@H](C2CCCC2)N(C)C(=O)C2(CC(C)(C)C2)NC(=O)[C@@H]2CCCN2C(=O)[C@H](CCc2cc(F)c(C(F)(F)F)c(F)c2)NC(=O)CN(C)C(=O)[C@H](Cc2ccc(C(F)(F)F)cc2)N2CC/C=C\C[C@@H](C2=O)N(C)C(=O)CN(C)C1=O [PP1727] | A (a compound having 10 or more and less than 20 is denoted as A) | A (a compound having 10 or more and less than 20 is denoted as A)
3 | 0.076 | 8.1 | CCCN(C)C(=O)[C@@H]1CC(=O)N(C)[C@@H](C)C(=O)N[C@@H]([C@@H](C)CC)C(=O)N(C)CC(=O)N(C)[C@H]2C/C=C\CCN(C2=O)[C@@H](Cc2ccc(C(F)(F)F)cc2)C(=O)N(C)CC(=O)N[C@@H](CCc2cc(F)c(C(F)(F)F)c(F)c2)C(=O)N2C[C@H](OCC)C[C@H]2C(=O)NC2(CCC2)C(=O)N(C)[C@@H](C2CCCC2)C(=O)N1C [PP1666] | A (a compound having 10 or more and less than 20 is denoted as A) | A (a compound having 10 or more and less than 20 is denoted as A)
4 | 0.14 | 10.3 | CCCC[C@H]1C(=O)N[C@@H]([C@@H](C)CC)C(=O)N(C)CC(=O)N(C)[C@H]2C/C=C\CCN(C2=O)[C@@H](Cc2ccc(C(F)(F)F)cc2)C(=O)N(C)CC(=O)N[C@@H](CCc2cc(F)c(C(F)(F)F)c(F)c2)C(=O)N2C[C@H](OCC)C[C@H]2C(=O)NC2(CCC2)C(=O)N(C)[C@@H](C2CCCC2)C(=O)N(C)[C@H](C(=O)N(C)CCC)CC(=O)N1C [PP1704] | A (a compound having 10 or more and less than 20 is denoted as A) | A (a compound having 10 or more and less than 20 is denoted as A)
5 | 0.056 | 3.5 | CCO[C@@H]1C[C@H]2C(=O)N(C)C3(CCCC3)C(=O)N(C)[C@@H](C3CCCC3)C(=O)N(C)[C@H](C(=O)N(C)C)CC(=O)N(C)[C@@H](CC)C(=O)N[C@@H]([C@@H](C)CC)C(=O)N(C)CC(=O)N(C)[C@H]3C/C=C\CCN(C3=O)[C@@H](Cc3ccc(C(F)(F)F)cc3)C(=O)N(C)CC(=O)N[C@@H](CCc3cc(F)c(C(F)(F)F)c(F)c3)C(=O)N2C1 [PP1804] | A (a compound having 10 or more and less than 20 is denoted as A) | A (a compound having 10 or more and less than 20 is denoted as A)
6 | 3.4 | 68 | CCCN(C)C(=O)[C@@H]1CC(=O)N(C)[C@@H](CC(C)C)C(=O)N[C@@H](C2CCOCC2)C(=O)N(C)CC(=O)N(C)[C@H]2C/C=C\CCN(C2=O)[C@@H](Cc2ccc(C(F)(F)F)cc2)C(=O)N(C)CC(=O)N[C@@H](CCc2cc(F)c(C(F)(F)F)c(F)c2)C(=O)N2C[C@H](OCC)C[C@H]2C(=O)NC2(CC(C)(C)C2)C(=O)N(C)[C@@H](C2CCCC2)C(=O)N1C [PP1923] | A (a compound having 10 or more and less than 20 is denoted as A) | A (a compound having 10 or more and less than 20 is denoted as A)
7 | 6.4 | 170 | CCO[C@@H]1C[C@H]2C(=O)NC3(CC(C)(C)C3)C(=O)N(C)[C@@H](C3CCCC3)C(=O)N3CCC[C@@H]3CC(=O)N(C)[C@@H](CC)C(=O)N[C@@H]([C@@H](C)CC)C(=O)N(C)CC(=O)N(C)[C@H]3C/C=C\CCN(C3=O)[C@@H](CC3CCCCC3)C(=O)N(C)CC(=O)N[C@@H](CCc3cc(F)c(C(F)(F)F)c(F)c3)C(=O)N2C1 [PP1620] | B (a compound having 3 or more and less than 10 is denoted as B) | B (a compound having 3 or more and less than 10 is denoted as B)
8 | 0.081 | 2.2 | CCC[C@H]1C(=O)N[C@@H]([C@@H](C)CC)C(=O)N(C)CC(=O)N(C)[C@H]2C/C=C\CCN(C2=O)[C@@H](Cc2ccc(C(F)(F)F)cc2)C(=O)N(C)CC(=O)N[C@@H](CCc2cc(F)c(C(F)(F)F)c(F)c2)C(=O)N2C[C@H](OCC)C[C@H]2C(=O)NC2(CC(F)(F)C2)C(=O)N(C)[C@@H](C2CCCC2)C(=O)N(C)[C@H](C(=O)N(C)CC)CC(=O)N1C [PP1735] | AA (a compound having 20 or more is denoted as AA) | A (a compound having 10 or more and less than 20 is denoted as A)
9 | 0.36 | 79.3 | CCC[C@H]1C(=O)N[C@@H]([C@@H](C)CC)C(=O)N(C)CC(=O)N(C)[C@H]2C/C=C\CCN(C2=O)[C@@H](Cc2ccc(C(F)(F)F)cc2)C(=O)N(C)CC(=O)N[C@@H](CCc2cc(F)c(C(F)(F)F)c(F)c2)C(=O)N(CC)CC(=O)NC2(CC(C)(C)C2)C(=O)N(C)[C@@H](C2CCCC2)C(=O)N(C)[C@H](C(=O)N(C)C)CC(=O)N1C [PP1777] | A (a compound having 10 or more and less than 20 is denoted as A) | B (a compound having 3 or more and less than 10 is denoted as B)
10 | 0.12 | 9.5 | CCO[C@@H]1C[C@H]2C(=O)NC3(CC(C)(C)C3)C(=O)N(C)[C@@H](C3CCCC3)C(=O)N(C)[C@H](C(=O)N(C)C)CC(=O)N(C)[C@@H](CC(C)C)C(=O)N[C@@H]([C@@H](C)CC)C(=O)N(C)CC(=O)N(C)[C@H]3C/C=C\CCN(C3=O)[C@@H](Cc3ccc(C(F)(F)F)cc3)C(=O)N(C)CC(=O)N[C@@H](CCc3ccc(C(F)(F)F)c(F)c3)C(=O)N2C1 [PP1931] | A (a compound having 10 or more and less than 20 is denoted as A) | B (a compound having 3 or more and less than 10 is denoted as B)
11 | 0.18 | 50 | CCCN(C)C(=O)[C@@H]1CC(=O)N(C)[C@@H](CCOC)C(=O)N[C@@H]([C@@H](C)CC)C(=O)N(C)CC(=O)N(C)[C@H]2C/C=C\CCN(C2=O)[C@@H](Cc2ccc(C(F)(F)F)cc2)C(=O)N(C)CC(=O)N[C@@H](CCc2cc(F)c(C(F)(F)F)c(F)c2)C(=O)N2C[C@@H](C)C[C@H]2C(=O)NC2(CC(C)(C)C2)C(=O)N(C)[C@@H](C2CCCC2)C(=O)N1C [PP1974] | A (a compound having 10 or more and less than 20 is denoted as A) | A (a compound having 10 or more and less than 20 is denoted as A)
12 | 0.13 | 5.3 | CCCOC[C@H]1C(=O)N[C@@H]([C@@H](C)CC)C(=O)N(C)CC(=O)N(C)[C@H]2C/C=C\CCN(C2=O)[C@@H](Cc2ccc(C(F)(F)F)cc2)C(=O)N(C)CC(=O)N[C@@H](CCc2cc(F)c(C(F)(F)F)c(F)c2)C(=O)N2C[C@H](OCC)C[C@H]2C(=O)NC2(CC(F)(F)C2)C(=O)N(C)[C@@H](C2CCCC2)C(=O)N(C)[C@H](C(=O)N(C)CCC)CC(=O)N1C [PP1744] | A (a compound having 10 or more and less than 20 is denoted as A) | A (a compound having 10 or more and less than 20 is denoted as A)
13 | 0.093 | 11.1 | CC[C@H](C)[C@@H]1NC(=O)[C@H](CC(C)C)N(C)C(=O)C[C@@H](C(=O)N(C)C)N(C)C(=O)[C@H](C2CCCC2)N(C)C(=O)C2(CCC2)NC(=O)[C@@H]2C[C@@H](C)CN2C(=O)[C@H](CCc2cc(F)c(C(F)(F)F)c(F)c2)NC(=O)CN(C)C(=O)[C@H](Cc2ccc(C)cc2)N2CC/C=C\C[C@@H](C2=O)N(C)C(=O)CN(C)C1=O [PP1866] | A (a compound having 10 or more and less than 20 is denoted as A) | B (a compound having 3 or more and less than 10 is denoted as B)
14 | 0.071 | 3 | CCO[C@@H]1C[C@H]2C(=O)NC3(CC(C)(C)C3)C(=O)N(C)[C@@H](C3CCCC3)C(=O)N(C)[C@H](C(=O)N(C)C)CC(=O)N(C)[C@@H](CC(F)(F)F)C(=O)N[C@@H]([C@@H](C)CC)C(=O)N(C)CC(=O)N(C)[C@H]3C/C=C\CCN(C3=O)[C@@H](Cc3ccc(C(F)(F)F)cc3)C(=O)N(C)CC(=O)N[C@@H](CCc3ccc(C(F)(F)F)c(OC)c3)C(=O)N2C1 [PP1675] | A (a compound having 10 or more and less than 20 is denoted as A) | B (a compound having 3 or more and less than 10 is denoted as B)
15 | 0.041 | 2.9 | CCCN(C)C(=O)[C@@H]1CC(=O)N(C)[C@@H](COC)C(=O)N[C@@H]([C@@H](C)CC)C(=O)N(C)CC(=O)N(C)[C@H]2C/C=C\CCN(C2=O)[C@@H](Cc2ccc(C(F)(F)F)cc2)C(=O)N(C)CC(=O)N[C@@H](CCc2cc(F)c(C(F)(F)F)c(F)c2)C(=O)N2C[C@H](F)C[C@H]2C(=O)NC2(CC(C)(C)C2)C(=O)N(C)[C@@H](C2CCCC2)C(=O)N1C [PP1696] | AA (a compound having 20 or more is denoted as AA) | A (a compound having 10 or more and less than 20 is denoted as A)

From patent US20240158446A1, “CYCLIC COMPOUND HAVING SELECTIVE INHIBITORY ACTION ON KRAS OVER HRAS AND NRAS” (CHUGAI SEIYAKU KABUSHIKI KAISHA, priority 2021, published 2024)
